From patent publication US11180462B2, “Microbiocidal oxadiazole derivatives” (SYNGENTA PARTICIPATIONS AG, priority 2015, dated 2021)

Columns and labels:
[1] = tested on: Puccinia recondita f. Sp. Tritici; test: Fungicidal activity against Puccinia recondita f. sp. tritici / wheat / leaf disc curative (brown rust); type: in vivo; conditions: foliar, 24 h, 200 ppm in the applied formulation, wheat leaf segments, curative (applied 1 day after inoculation), compared to untreated control leaf disks, read-out: disease control
Protocol: Leaf disks or leaf segments of various plant species are cut from plants grown in a greenhouse. The cut leaf disks or segments are placed in multiwell plates (24-well format) onto water agar. The leaf disks are sprayed with a test solution before (preventative) or after (curative) inoculation. Compounds to be tested are prepared as DMSO solutions (max. 10 mg/ml) which are diluted to the appropriate concentration with 0.025% Tween20 just before spraying. The inoculated leaf disks or segments are incubated under defined conditions (temperature, relative humidity, light, etc.) according to the respective test system. A single evaluation of disease level is carried out 3 to 14 days after inoculation, depending on the pathosystem. Percent disease control relative to the untreated check leaf disks or segments is then calculated.
Fungicidal Activity Against Puccinia recondita f. Sp. Tritici/Wheat/Leaf Disc Curative (Brown Rust)
Wheat leaf segments cv. Kanzler are placed on agar in multiwell plates (24-well format). The leaf segments are then inoculated with a spore suspension of the fungus. Plates were stored in darkness at 19° C. and 75% relative humidity. The formulated test compound diluted in water was applied 1 day after inoculation. The leaf segments were incubated at 19° C. and 75% relative humidity under a light regime of 12 hours light/12 hours darkness in a climate cabinet and the activity of a compound was assessed as percent disease control compared to untreated when an appropriate level of disease damage appears in untreated check leaf segments (6 to 8 days after application).
The following compounds at 200 ppm in the applied formulation give at least 80% disease control in this test when compared to untreated control leaf disks under the same conditions, which show extensive disease development.

[2] = tested on: Glomerella lagenarium (Colletotrichum lagenarium); test: Fungicidal activity against Glomerella lagenarium (Colletotrichum lagenarium) liquid culture / cucumber / preventative (anthracnose); type: cell-based; conditions: Colletotrichum orbiculare; 20 ppm in the applied formulation; liquid culture (PDB), growth inhibition measured photometrically after 3 to 4 days; compared to untreated control; read-out: disease control
How it was run: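 Percent activity against the untreated check was derived from photometric growth measurements made 2 to 7 days after conidia in potato dextrose broth were combined with compound at 20 ppm. Cultures were kept dark at 24 °C and 96% humidity.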

[3] = tested on: Puccinia recondita f. Sp. Tritici; test: Fungicidal activity against Puccinia recondita f. sp. tritici / wheat / leaf disc preventative (brown rust); type: in vivo; conditions: foliar, 200 ppm in the applied formulation, wheat leaf segments, preventative, compared to untreated control leaf disks, read-out: disease control
How it was run: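 Percent disease control relative to untreated check segments is scored once disease develops, 7 to 9 days after application. Wheat cv. Kanzler segments receive compound spray (200 ppm in formulation) one day before spore inoculation, then sit at 19° C. and 75% rh under 12 h light/12 h dark.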

How did the pest or weed control at 200 ppm [1] turn out when `CC(=O)N1CCCC1C(=O)N(Cc1ccc(-c2noc(C(F)(F)F)n2)cc1)CC1CCCO1` (stereo not drawn) [Compound 1.444, 1-acetyl-N-(tetrahydrofuran-2-ylmethyl)-N-[[4-[5-(trifluoromethyl)-1,2,4-oxadiazol-3-yl]phenyl]methyl]-pyrrolidine-2-carboxamide] was run?
The pest or weed control at 200 ppm was no less than 80%.

How did the pest or weed control at 200 ppm [1] turn out when `C#CCOC(=O)N(Cc1ccc(-c2noc(C(F)(F)F)n2)cc1)OC` [Compound 2.20, prop-2-ynyl N-methoxy-N-[[4-[5-(trifluoromethyl)-1,2,4-oxadiazol-3-yl]phenyl]methyl]-carbamate] was run?
Its pest or weed control at 200 ppm is no less than 80%.

And the inhibition of growth at 20 ppm [2]?
Its inhibition of growth at 20 ppm is no less than 80%.

What does the source list for `O=C(C1CCCC1)N(Cc1ccc(-c2noc(C(F)(F)F)n2)cc1)Cc1ccco1` [Compound 1.455, N-(2-furylmethyl)-N-[[4-[5-(trifluoromethyl)-1,2,4-oxadiazol-3-yl]phenyl]methyl]-cyclopentane-carboxamide]?
pest or weed control at 200 ppm [1]: ≥ 80%; inhibition of growth at 20 ppm [2]: ≥ 80%

Which pest or weed control at 200 ppm [1] does the source give for `CON(Cc1ccc(-c2noc(C(F)(F)F)n2)cc1)C(=O)c1cccc2ccccc12` [Compound 1.37] here?
The pest or weed control at 200 ppm was no less than 80%.

And the inhibition of growth at 20 ppm [2]?
Its inhibition of growth at 20 ppm is no less than 80%.

Which pest or weed control at 200 ppm [1] does the source give for `C#CCN(Cc1ccc(-c2noc(C(F)(F)F)n2)cc1)C(=O)C(C)(C)CCC` [Compound 1.153, 2,2-dimethyl-N-prop-2-ynyl-N-[[4-[5-(trifluoromethyl)-1,2,4-oxadiazol-3-yl]phenyl]methyl]-pentanamide] here?
Its pest or weed control at 200 ppm is no less than 80%.

What about the inhibition of growth at 20 ppm [2] of the same compound?
The inhibition of growth at 20 ppm was no less than 80%.

Which results are given for `CCC(C)N(Cc1ccc(-c2noc(C(F)(F)F)n2)cc1)C(=O)C1=CCCC1` (stereo not drawn) [Compound 1.377, N-sec-butyl-N-[[4-[5-(trifluoromethyl)-1,2,4-oxadiazol-3-yl]phenyl]methyl]-cyclopentene-1-carboxamide]?
pest or weed control at 200 ppm [1]: ≥ 80%; inhibition of growth at 20 ppm [2]: ≥ 80%

`C#CCN(Cc1ccc(-c2noc(C(F)(F)F)n2)cc1)C(=O)CCc1ccc(Cl)cc1` [Compound 1.160, 3-(4-chlorophenyl)-N-prop-2-ynyl-N-[[4-[5-(trifluoromethyl)-1,2,4-oxadiazol-3-yl]phenyl]methyl]-propanamide] was tested. Which pest or weed control at 200 ppm [1] did it give?
The pest or weed control at 200 ppm was no less than 80%.

Which results are given for `COCCN(Cc1ccc(-c2noc(C(F)(F)F)n2)cc1)C(=O)C1(F)CC1` [Compound 1.349, 1-fluoro-N-(2-methoxyethyl)-N-[[4-[5-(trifluoromethyl)-1,2,4-oxadiazol-3-yl]phenyl]methyl]-cyctopropane-carboxamide]?
pest or weed control at 200 ppm [1]: ≥ 80%; inhibition of growth at 20 ppm [2]: ≥ 80%

Which results are given for `O=C(C1CC1F)N(Cc1ccc(-c2noc(C(F)(F)F)n2)cc1)CC1CCCO1` (stereo not drawn) [Compound 1.445, 2-fluoro-N-(tetrahydrofuran-2-ylmethyl)-N-[[4-[5-(trifluoromethyl)-1,2,4-oxadiazol-3-yl]phenyl]methyl]-cyclopropane-carboxamide]?
pest or weed control at 200 ppm [1]: ≥ 80%; inhibition of growth at 20 ppm [2]: ≥ 80%

`O=C(CCCCC(F)(F)F)N(Cc1ccc(-c2noc(C(F)(F)F)n2)cc1)C1CC1` [Compound 1.131, N-cyclopropyl-6,6,6-trifluoro-N-[[4-[5-(trifluoromethyl)-1,2,4-oxadiazol-3-yl]phenyl]methyl]-hexanamide] was tested. Which pest or weed control at 200 ppm [1] did it give?
The pest or weed control at 200 ppm was no less than 80%.

And the inhibition of growth at 20 ppm [2]?
Its inhibition of growth at 20 ppm is no less than 80%.

How did the pest or weed control at 200 ppm [1] turn out when `C#CCC(NS(=O)(=O)CC)C(=O)N(Cc1ccc(-c2noc(C(F)(F)F)n2)cc1)C1CC1` (stereo not drawn) [Compound 1.137, N-cyclopropyl-2-(ethylsulfonylamino)-N-[[4-[5-(trifluoromethyl)-1,2,4-oxadiazol-3-yl]phenyl]methyl]pent-4-ynamide] was run?
The pest or weed control at 200 ppm was no less than 80%.

How did the pest or weed control at 200 ppm [1] turn out when `CCCON(Cc1ccc(-c2noc(C(F)(F)F)n2)cc1)C(=O)C1OCCO1` [Compound 1.317, N-propoxy-N-[[4-[5-(trifluoromethyl)-1,2,4-oxadiazol-3-yl]phenyl]methyl]-1,3-dioxolane-2-carboxamide] was run?
The pest or weed control at 200 ppm was no less than 80%.

What about the inhibition of growth at 20 ppm [2] of the same compound?
The inhibition of growth at 20 ppm was no less than 80%.

Which results are given for `C=CCOC(=O)N(Cc1ccc(-c2noc(C(F)(F)F)n2)cc1)OC` [Compound 2.11, allyl N-methoxy-N-[[4-[5-(trifluoromethyl)-1,2,4-oxadiazol-3-yl]phenyl]methyl]-carbamate]?
pest or weed control at 200 ppm [1]: ≥ 80%; inhibition of growth at 20 ppm [2]: ≥ 80%

`CON(Cc1ccc(-c2noc(C(F)(F)F)n2)cc1)C(=O)c1cccc(C(F)(F)F)c1` [Compound 1.13, N-methoxy-3-(trifluoromethyl)-N-[[4-[5-(trifluoromethyl)-1,2,4-oxadiazol-3-yl]phenyl]methyl]-benzamide] was tested. Which pest or weed control at 200 ppm [1] did it give?
Its pest or weed control at 200 ppm is no less than 80%.

What about the inhibition of growth at 20 ppm [2] of the same compound?
Its inhibition of growth at 20 ppm is no less than 80%.

`CCCC(C)(C)C(=O)N(Cc1ccc(-c2noc(C(F)(F)F)n2)cc1)CC1CC1` [Compound 1.204, N-(cyclopropylmethyl)-2,2-dimethyl-N-[[4-[5-(trifluoromethyl)-1,2,4-oxadiazol-3-yl]phenyl]methyl]-pentanamide] was tested. Which pest or weed control at 200 ppm [1] did it give?
Its pest or weed control at 200 ppm is no less than 80%.

`CON(Cc1ccc(-c2noc(C(F)(F)F)n2)cc1)C(=O)OCCF` [Compound 2.15, 2-fluoroethyl N-methoxy-N-[[4-[5-(trifluoromethyl)-1,2,4-oxadiazol-3-yl]phenyl]methyl]-carbamate] was tested. Which pest or weed control at 200 ppm [1] did it give?
Its pest or weed control at 200 ppm is no less than 80%.

And the inhibition of growth at 20 ppm [2]?
Its inhibition of growth at 20 ppm is no less than 80%.

What does the source list for `CCN(Cc1ccc(-c2noc(C(F)(F)F)n2)cc1)C(=O)N(CC)CC1CC1` [Compound 3.100, 1-(cyclopropylmethyl)-1,3-diethyl-3-[[4-[5-(trifluoromethyl)-1,2,4-oxadiazol-3-yl]phenyl]methyl]urea]?
pest or weed control at 200 ppm [1]: ≥ 80%; inhibition of growth at 20 ppm [2]: ≥ 80%

For `O=C(C1CC1(F)F)N(Cc1ccc(-c2noc(C(F)(F)F)n2)cc1)Cc1ccco1` (stereo not drawn) [Compound 1.464, 2,2-difluoro-N-(2-furylmethyl)-N-[[4-[5-(trifluoromethyl)-1,2,4-oxadiazol-3-yl]phenyl]methyl]-cyclopropane-carboxamide], which pest or weed control at 200 ppm [3] is on record?
Its pest or weed control at 200 ppm is no less than 80%.

What about the inhibition of growth at 20 ppm [2] of the same compound?
The inhibition of growth at 20 ppm was no less than 80%.

`COc1ccccc1CC(=O)N(Cc1ccc(-c2noc(C(F)(F)F)n2)cc1)C1CC1` [Compound 1.113, N-cyclopropyl-2-(2-methoxyphenyl)-N-[[4-[5-(trifluoromethyl)-1,2,4-oxadiazol-3-yl]phenyl]methyl]-acetamide] was tested. Which pest or weed control at 200 ppm [3] did it give?
The pest or weed control at 200 ppm was no less than 80%.

What about the inhibition of growth at 20 ppm [2] of the same compound?
The inhibition of growth at 20 ppm was no less than 80%.

Which results are given for `CC=CC(=O)N(Cc1ccc(-c2noc(C(F)(F)F)n2)cc1)CC1CCCO1` (stereo not drawn) [Compound 1.413, N-(tetrahydrofuran-2-ylmethyl)-N-[[4-[5-(trifluoromethyl)-1,2,4-oxadiazol-3-yl]phenyl]methyl]but-2-enamide]?
pest or weed control at 200 ppm [3]: ≥ 80%; inhibition of growth at 20 ppm [2]: ≥ 80%

Which pest or weed control at 200 ppm [3] does the source give for `Cc1cccc(C)c1C(=O)N(Cc1ccc(-c2noc(C(F)(F)F)n2)cc1)C1CC1` [Compound 1.105, N-cyclopropyl-2,6-dimethyl-N-[[4-[5-(trifluoromethyl)-1,2,4-oxadiazol-3-yl]phenyl]methyl]-benzamide] here?
Its pest or weed control at 200 ppm is no less than 80%.

And the inhibition of growth at 20 ppm [2]?
The inhibition of growth at 20 ppm was no less than 80%.

Which pest or weed control at 200 ppm [3] does the source give for `CCC(C)C(=O)N(Cc1ccc(-c2noc(C(F)(F)F)n2)cc1)CC1CCCO1` (stereo not drawn) [Compound 1.437, 2-methyl-N-(tetrahydrofuran-2-ylmethyl)-N-[[4-[5-(trifluoromethyl)-1,2,4-oxadiazol-3-yl]phenyl]methyl]-butanamide] here?
The pest or weed control at 200 ppm was no less than 80%.

What about the inhibition of growth at 20 ppm [2] of the same compound?
The inhibition of growth at 20 ppm was no less than 80%.

Which results are given for `CCCCON(Cc1ccc(-c2noc(C(F)(F)F)n2)cc1)C(=O)COC` [Compound 1.602, N-butoxy-2-methoxy-N-[[4-[5-(trifluoromethyl)-1,2,4-oxadiazol-3-yl]phenyl]methyl]-acetamide]?
pest or weed control at 200 ppm [3]: ≥ 80%; inhibition of growth at 20 ppm [2]: ≥ 80%

`CC(=O)NCC(=O)N(Cc1ccc(-c2noc(C(F)(F)F)n2)cc1)OCC=C(Cl)Cl` [Compound 1.537, 2-acetamido-N-(3,3-dichloroallyloxy)-N-[[4-[5-(trifluoromethyl)-1,2,4-oxadiazol-3-yl]phenyl]methyl]-acetamide] was tested. Which pest or weed control at 200 ppm [3] did it give?
The pest or weed control at 200 ppm was no less than 80%.

What about the inhibition of growth at 20 ppm [2] of the same compound?
Its inhibition of growth at 20 ppm is no less than 80%.

Which results are given for `CC(C)CC(=O)N(Cc1ccc(-c2noc(C(F)(F)F)n2)cc1)CC1CCCO1` (stereo not drawn) [Compound 1.423, 3-methyl-N-(tetrahydrofuran-2-ylmethyl)-N-[[4-[5-(trifluoromethyl)-1,2,4-oxadiazol-3-yl]phenyl]methyl]-butanamide]?
pest or weed control at 200 ppm [3]: ≥ 80%; inhibition of growth at 20 ppm [2]: ≥ 80%

For `CON(Cc1ccc(-c2noc(C(F)(F)F)n2)cc1)C(=O)OCCCl` [Compound 2.17, 2-chloroethyl N-methoxy-N-[[4-[5-(trifluoromethyl)-1,2,4-oxadiazol-3-yl]phenyl]methyl]-carbamate], which pest or weed control at 200 ppm [1] is on record?
The pest or weed control at 200 ppm was no less than 80%.

And the inhibition of growth at 20 ppm [2]?
The inhibition of growth at 20 ppm was no less than 80%.
